Reference: US12492380B2, “Methods for the production of hepatocytes” (FUJIFILM Cellular Dynamics, Inc., priority 2019, dated 2025)

How the values were obtained:
[1] = tested on: iPSCs; test: CHIR99021 preconditioning/supplementation during iPSC to hepatocyte differentiation; assay type: cell-based, human; conditions: supplementation midway through differentiation
Experimental: iPS cells were maintained on […] ® in E8 Medium under hypoxic conditions (5% 02), using 0.5 mM EDTA for splitting approximately every 4-5 days. The iPSC cultures were acclimatized to hypoxia for around 10 passages before the onset of hepatocyte differentiation. Starting iPS cell cultures were seeded at 15-20 k/cm^2 on […] ®-coated 6-well plates or T150 flasks. Two days after seeding, media was changed to preconditioning medium (PCM) and fed daily for two-three days. Endoderm induction was performed by placing the cells in media containing activin (DE Day 0 Medium, also referred to as T0 medium). On days 1-2, media was changed to DE Day 1-2 Medium (also referred to as T1-T2 medium) containing activin, along with low concentrations of BMP4, VEGF and FGF2 for the next two days. From day 3-9, media was changed to DE Day 3-9 (also referred to as T3-T6 medium) with the base medium SFD, supplemented with Activin, BMP4 and VEGF. On day 10, a sampling of the culture was performed for staining the percentage of definitive endoderm cells. […] Surface staining was performed to quantify the levels of Tra181, CXCR4, CD117 by flow cytometry. […]
Alternately, the cell individualized cell suspension was placed in media for aggregate formation. […] Intracellular staining to quantify the levels of AAT, ASGPR, Albumin, and matched isotypes was performed via flow cytometry. […]

[2] = tested on: iPSC-derived hepatocytes; test: Stage 3 maturation of thawed end of Stage 2 hepatocytes (morphology, AAT and albumin by flow cytometry); assay type: cell-based, human
Experimental: Thawing Cryopreserved hepatocytes at Stage 2 of differentiation and maturation to Stage 3 hepatocytes post thaw: Cryopreserved hepatocytes at the end of stage 2 were thawed in Stage 3 media. The cells were plated on Collagen I coated plates without spinning in the presence of a rock inhibitor. The media was gently changed at the end of 24 hours post plating. The maturation media contained SB/DAPT or Src kinase inhibitors and the cells were allowed to differentiate to additional 8-10 days with media exchanges every 48 hrs. The end stage cells were analyzed for hepatocyte morphology and the presence of AAT and albumin expression quantified by flow cytometry.
Generation of Liver organoids: Aggregates consisting of hepatocytes and other liver relevant cell types—specifically macrophages, MSC, and endothelial cells—designed to mimic liver organoid culture were established and maintained for 5-10 days. Aggregates were established in hepatocyte Stage 3 media (Table 2) supplemented with 1 μM of H1152, with the non-hepatocyte cells undergoing adaptation to Stage 3 media prior to initiation of co-cultures. For co-culture initiation, end of Stage 1 cells Hepatocytes were recovered from cryopreservation and aggregated at 500,000 cells/mL in Stage 2 media (Table 2) supplemented with 1 μM of rho kinase (rock) inhibitor H1152. […]

[3] = target: T1, ZAP-70 (Homo sapiens, UniProt P43403); conditions: cited from earlier work
T1 sequence (P43403 1-619): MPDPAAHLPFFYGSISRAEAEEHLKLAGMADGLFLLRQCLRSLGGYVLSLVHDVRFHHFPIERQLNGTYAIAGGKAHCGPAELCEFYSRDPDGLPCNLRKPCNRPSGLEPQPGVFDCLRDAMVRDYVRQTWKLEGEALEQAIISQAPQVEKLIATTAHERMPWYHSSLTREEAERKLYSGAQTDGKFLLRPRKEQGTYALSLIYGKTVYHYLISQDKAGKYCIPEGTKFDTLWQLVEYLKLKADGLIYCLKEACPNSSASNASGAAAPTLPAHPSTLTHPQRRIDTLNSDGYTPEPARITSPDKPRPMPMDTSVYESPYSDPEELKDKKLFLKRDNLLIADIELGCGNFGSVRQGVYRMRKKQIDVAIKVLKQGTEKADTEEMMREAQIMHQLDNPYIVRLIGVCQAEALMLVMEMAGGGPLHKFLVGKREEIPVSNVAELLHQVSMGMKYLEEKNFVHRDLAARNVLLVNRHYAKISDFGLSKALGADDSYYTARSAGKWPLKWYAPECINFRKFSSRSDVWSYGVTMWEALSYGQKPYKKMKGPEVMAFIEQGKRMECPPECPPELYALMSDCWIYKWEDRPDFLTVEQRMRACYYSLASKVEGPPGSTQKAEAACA

[4] = target: type I TGF-β receptors; conditions: direct inhibition, unrelated to Src signaling; cited from earlier work

Compound: Cc1c[nH]c(-c2cnc(NCCNc3ccc(C#N)cn3)nc2-c2ccc(Cl)cc2Cl)n1 [CHIR99021]
- expansion of cells during hepatoblast to hepatocyte transition [1]: effective in promoting the expansion of cells

Compound: Cc1ccc(-c2nn(C(C)(C)C)c3ncnc(N)c23)cc1 [PP1]
- maturation of hepatocytes ([2]; PP1 substituted for SB431542/DAPT in Stage 3 maturation media, post thaw, preliminary data): facilitated the maturation of hepatocytes
- maturation of hepatocytes in co-culture ([2]; in the presence of MSCs, macrophages and endothelial cells): enhances the maturation of Hepatocytes
- IC50 [3]: ≥ 0.6 µM
- IC50 [4]: 0.05 µM
